Measurements from paper PMC6774960, “Design, synthesis and biological evaluation of a series of new resveratrol analogues as potential anti-cancer agents” (Royal Society Open Science, 2019).
Blank lines part the entries; values can stand above or below the molecule they belong to.

Columns and labels:
[1] = system: HepG2 cells; test: MTT anti-proliferation assay, HepG2; assay type: cell-based, human; conditions: average of three determinations
Method: (§1) The 22 synthesized resveratrol compounds were evaluated for anti-proliferative activities against three human cancer cell lines, including HepG2, A549 and HeLa cells, using 3-[4,5-dimethylthiazol-2-yl]-2,5 diphenyl tetrazolium bromide (MTT) assays. Paclitaxel, a well-known tubulin inhibitor, was used as a positive control. […] Therefore, the inhibitory activity of the compounds depended not only on the 2-position substitution of acrylic acid, but also on the 3-position substitution of acrylic acid.
(§2) The anti-proliferative and cytotoxicity activity was determined using MTT assay. Human cervical carcinoma HeLa cells, human hepatocellular carcinoma HepG2 cells, human lung carcinoma A549 cells were representative in the anti-proliferation assay, which were obtained from the Shanghai Institute of Cell Biology (Shanghai, China). Normal African green monkey kidney Vero cells were a gift from Dr Xiumiao He at Guangxi University for Nationalities. Normal human hepatocytes LO2 cells were a gift from Dr Xing Lin at Guangxi Medical University. The HepG2, Hela, LO2 and Vero cells were cultured in Dulbecco's modified Eagle's medium (DMEM, Gibco) and the A549 cells were cultured in RPMI1640 (Gibco), both media were supplemented with 10% fetal calf serum and antibiotics (100 IU ml^−1 penicillin, 100 IU ml^−1 streptomycin; Amresco).
(§3) Cells were seeded in 96-well microtiter plates at a density of 1 × 10^4 cells well^−1 and incubated with different concentrations of compound (6.25, 12.50, 25.00, 50.00 to 100.00 µM), cisplatin and paclitaxel in RPMI-1640 or DMEM at 37°C with 5% CO2. After 24 h, cell morphology was observed using a light microscope, and then 20 µl of MTT solution (5 mg ml^−1) was added to the well and incubated for 4 h, then cell survival was determined by measuring the optical density (OD) absorbance at a wavelength of 570 nm using an ELISA microplate reader. The inhibition rate (IR) following each compound treatment was determined by the following equation: IR (%) = (1 − ODexp/ODcon) × 100%, where ODexp and ODcon are the OD of the treated and untreated cells, respectively. Cisplatin and paclitaxel were used as positive control drugs.

[2] = system: A549 cells; test: MTT anti-proliferation assay, A549; assay type: cell-based, human; conditions: average of three determinations
Method: as §1, §2, §3

[3] = system: HeLa cells; test: MTT anti-proliferation assay, HeLa; assay type: cell-based, human; conditions: 24 h, average of three determinations
Method: The 22 synthesized resveratrol compounds were evaluated for anti-proliferative activities against three human cancer cell lines, including HepG2, A549 and HeLa cells, using 3-[4,5-dimethylthiazol-2-yl]-2,5 diphenyl tetrazolium bromide (MTT) assays. Paclitaxel, a well-known tubulin inhibitor, was used as a positive control.
as §2
After 24 h, cell morphology was observed using a light microscope, and then 20 µl of MTT solution (5 mg ml^−1) was added to the well and incubated for 4 h, then cell survival was determined by measuring the optical density (OD) absorbance at a wavelength of 570 nm using an ELISA microplate reader. […] Cisplatin and paclitaxel were used as positive control drugs.

[4] = system: Vero cells; test: MTT cytotoxicity test, Vero; assay type: cell-based, African green monkey; conditions: 24 h, average of three determinations
Method: (§4) Vero cells are non-tumorigenic cell lines and are important raw materials as the research and production of biological products. Vero cells show low tumorigenicity and had been approved for use in the production of human virus vaccines. Thus, Vero cells were chosen as a control for cytotoxicity. All compounds were evaluated for their cell toxicity against Vero and normal human hepatocytes cells line (LO2) using MTT assays.
as §2, §3

[5] = system: normal human hepatocytes LO2 cells; test: MTT cytotoxicity test, LO2; assay type: cell-based; conditions: 24 h, average of three determinations
Method: as §4, §2, §3

[6] = system: HepG2 cells; test: Morphologic observation by light microscope; assay type: cell-based, human; conditions: HepG2, cisplatin 20 µM, 24 h
Method: Morphological observations can directly reflect the effects of drugs on cells. HepG2 cells were cultured with increasing concentrations of compound r (0, 5, 15 and 45 µM) for 24 h and observed using a light microscope. The cell morphology was clearly altered with the increase in drug concentration (figure 2).
Figure 2. Effect of compound r on the microscopic examination of HepG2 cells. Morphology of HepG2 treated with compound r (0, 5, 15 and 45 µM) and cisplatin (20 µM) for 24 h. Light microscopy photographs, with 40× objective.
as §3

[7] = system: HepG2 cells; test: Cell cycle assay by flow cytometry; assay type: cell-based, human; conditions: HepG2, 20 µM, 24 h
Method: To evaluate the effects of compound r on cell cycle progression of HepG2, cells were treated with compound r at different concentrations (0, 5, 15 and 45 µM) for 24 h and then examined by flow cytometry. The accumulation of cells in S phase increased with increasing concentration of compound r. Approximately 18.36 ± 1.93%, 19.39 ± 2.06%, 29.9 ± 0.87% and 34.24 ± 1.00% of cells were arrested in S phase in response to 0, 5, 15 and 45 µM compound r, respectively. In comparison, 39.56 ± 0.97% cells were arrested in S phase after treatment with 20 µM cisplatin for 24 h.
Figure 5. Cells treated with 0, 5, 15 and 45 µM compound r for 24 h were collected and analysed by flow cytometry. Images were representative of three independent experiments. Values represented the mean ± s.d.; versus blank, *p < 0.01, **p < 0.001; versus control ^#p < 0.01, ^##p < 0.001.
Cells were treated with compound r (0, 5, 15, 45 µM) or 20 µM of cisplatin as the control for 24 h. Cells were collected by centrifugation (1000 rpm, 5 min), washed with PBS and fixed with 70% ice-cold ethanol overnight at 4°C. The cell cycle was examined on a flow cytometer using a cell cycle analysis kit (Beyotime Biotechnologyin, China) in accordance with the manufacturer's instructions.

[8] = MTT cytotoxicity test, Vero; assay type: cell-based, African green monkey; conditions: African green monkey, Vero cells (normal African green monkey kidney), average of three determinations
Method: as §4, §2, §3

[9] = MTT cytotoxicity test, LO2; assay type: cell-based, human; conditions: human, LO2 cells (normal human hepatocytes), average of three determinations
Method: as §4, §2, §3

Molecule: 3-(4-hydroxy-3-methoxy-5-nitrophenyl)-2-(4-methoxyphenyl) acrylic acid [compound s]
- IC50 ([1]; 24 h): 42 ± 4 µM
- IC50 ([2]; 24 h): 15 ± 4 µM
- IC50 [3]: 39 ± 2 µM
- CC50 [4]: > 100 µM
- CC50 [5]: 83 ± 2 µM

Molecule: N.N.[Cl][Pt][Cl] [cisplatin, reference compound]
- cell morphology [6]: rounded shape
- cells arrested in S phase [7]: 39.56 ± 0.97%

- IC50 ([1]; Homo sapiens, HepG2, 24 h): > 100 µM
- IC50 ([2]; Homo sapiens, A549, 24 h): > 100 µM
- IC50 ([3]; Homo sapiens, HeLa): > 100 µM
- melting point: 174 °C
Molecule: COc1ccc(C(=Cc2c(Cl)ccc(Cl)c2Cl)C(=O)O)cc1 [compound u, 2-(4-methoxyphenyl)-3-(2,3,6-trichlorophenyl) acrylic acid]
- CC50 at 24 h [8]: 38.6 ± 0.7 µM
- CC50 at 24 h [9]: 35 ± 1 µM
